According to patent publication US20130210623A1, “PESTICIDAL MIXTURES INCLUDING ISOXAZOLINE DERIVATIVES” (SYNGENTA CROP PROTECTION LLC, priority 2010, published 2013):

Key:
[1] = test system: Heliothis virescens (Tobacco Budworm); test: Heliothis virescens egg/larval mortality on artificial diet, 24-well microtiter plate; type: in vivo; settings: 4 days
Description: Heliothis virescens (Tobacco Budworm)
Eggs (0-24 h old) are placed in 24-well microtiter plate on artificial diet and treated with test solutions (DMSO) by pipetting. After an incubation period of 4 days, samples are checked for larval mortality.

[2] = test system: Tetranychus urticae (Two-Spotted Spider Mite); test: Tetranychus urticae mixed population mortality on sprayed bean leaf discs; type: in vivo
Excerpt: Tetranychus urticae (Two-Spotted Spider Mite)
Bean leaf discs on agar in 24-well microtiter plates are sprayed with test solutions (DMSO). After drying, the leaf discs are infested with mite populations of mixed ages. 8 days later, discs are checked for mixed population mortality.

## CC1(C)[C@H](C(=O)O[C@H](C#N)c2cccc(Oc3ccccc3)c2)[C@@H]1/C=C(\Cl)C(F)(F)F (racemic) [Lambda Cyhalothrin, lambda-cyhalothrin]
[1]; Table 2, Lambda Cyhalothrin alone 0.0125 ppm AI
  AVERAGE DEAD IN % Lambda Cyhalothrin: 0%
[1]; Table 2, Lambda Cyhalothrin alone 0.025 ppm AI
  AVERAGE DEAD IN % Lambda Cyhalothrin: 0%
[1]; Table 2, Lambda Cyhalothrin alone 0.05 ppm AI
  AVERAGE DEAD IN % Lambda Cyhalothrin: 0%
[1]; Table 2, Lambda Cyhalothrin alone 0.1 ppm AI
  AVERAGE DEAD IN % Lambda Cyhalothrin: 50%
[1]; Table 2, Lambda Cyhalothrin alone 0.2 ppm AI
  AVERAGE DEAD IN % Lambda Cyhalothrin: 80%
[1]; Table 2, Lambda Cyhalothrin alone 0.4 ppm AI
  AVERAGE DEAD IN % Lambda Cyhalothrin: 90%
[2]; Table 6, Lambda Cyhalothrin alone 6.25 ppm AI, 8 days
  AVERAGE DEAD IN % Lambda Cyhalothrin: 0%
[2]; Table 6, Lambda Cyhalothrin alone 12.5 ppm AI, 8 days
  AVERAGE DEAD IN % Lambda Cyhalothrin: 50%
[2]; Table 6, Lambda Cyhalothrin alone 25 ppm AI, 8 days
  AVERAGE DEAD IN % Lambda Cyhalothrin: 90%
[2]; Table 6, Lambda Cyhalothrin alone 50 ppm AI, 8 days
  AVERAGE DEAD IN % Lambda Cyhalothrin: 85%

## CN/C(=N\[N+](=O)[O-])NCc1cnc(Cl)s1 [Clothianidin, clothianidin]
[1]; Table 4, Clothianidin alone 1.5 ppm AI
  AVERAGE DEAD IN % Clothianidin: 0%
[1]; Table 4, Clothianidin alone 3 ppm AI
  AVERAGE DEAD IN % Clothianidin: 0%
[1]; Table 4, Clothianidin alone 6 ppm AI
  AVERAGE DEAD IN % Clothianidin: 25%
[1]; Table 4, Clothianidin alone 12 ppm AI
  AVERAGE DEAD IN % Clothianidin: 50%
[1]; Table 4, Clothianidin alone 24 ppm AI
  AVERAGE DEAD IN % Clothianidin: 85%
[2]; Table 8, Clothianidin alone 50 ppm AI, 8 days
  AVERAGE DEAD IN % Clothianidin: 0%
[2]; Table 8, Clothianidin alone 100 ppm AI, 8 days
  AVERAGE DEAD IN % Clothianidin: 0%
[2]; Table 8, Clothianidin alone 200 ppm AI, 8 days
  AVERAGE DEAD IN % Clothianidin: 0%
[2]; Table 8, Clothianidin alone 400 ppm AI, 8 days
  AVERAGE DEAD IN % Clothianidin: 0%
[2]; Table 8, Clothianidin alone 800 ppm AI, 8 days
  AVERAGE DEAD IN % Clothianidin: 0%

## Cc1cc(C2=NO[C@@](c3cc(Cl)cc(Cl)c3)(C(F)(F)F)C2)ccc1C(=O)NCC(=O)NCC(F)(F)F [I-A2]
[1]; Table 1, I-A2 alone 0.025 ppm AI
  AVERAGE DEAD IN % COMPOUND I-A2: 0%
[1]; Table 1, I-A2 alone 0.05 ppm AI
  AVERAGE DEAD IN % COMPOUND I-A2: 0%
[1]; Table 1, I-A2 alone 0.1 ppm AI
  AVERAGE DEAD IN % COMPOUND I-A2: 5%
[1]; Table 1, I-A2 alone 0.2 ppm AI
  AVERAGE DEAD IN % COMPOUND I-A2: 75%
[1]; Table 1, I-A2 alone 0.4 ppm AI
  AVERAGE DEAD IN % COMPOUND I-A2: 94%
[1]; Table 1, I-A2 alone 0.8 ppm AI
  AVERAGE DEAD IN % COMPOUND I-A2: 99%
[1]; Table 2, I-A2 alone 0.025 ppm AI
  AVERAGE DEAD IN % COMPOUND I-A2: 0%
[1]; Table 2, I-A2 alone 0.05 ppm AI
  AVERAGE DEAD IN % COMPOUND I-A2: 0%
[1]; Table 2, I-A2 alone 0.1 ppm AI
  AVERAGE DEAD IN % COMPOUND I-A2: 5%
[1]; Table 2, I-A2 alone 0.2 ppm AI
  AVERAGE DEAD IN % COMPOUND I-A2: 75%
[1]; Table 2, I-A2 alone 0.4 ppm AI
  AVERAGE DEAD IN % COMPOUND I-A2: 94%
[1]; Table 2, I-A2 alone 0.8 ppm AI
  AVERAGE DEAD IN % COMPOUND I-A2: 99%
[1]; Table 3, I-A2 alone 0.05 ppm AI
  AVERAGE DEAD IN % COMPOUND I-A2: 0%
[1]; Table 3, I-A2 alone 0.1 ppm AI
  AVERAGE DEAD IN % COMPOUND I-A2: 0%
[1]; Table 3, I-A2 alone 0.2 ppm AI
  AVERAGE DEAD IN % COMPOUND I-A2: 73%
[1]; Table 3, I-A2 alone 0.4 ppm AI
  AVERAGE DEAD IN % COMPOUND I-A2: 89%
[1]; Table 3, I-A2 alone 0.8 ppm AI
  AVERAGE DEAD IN % COMPOUND I-A2: 98%
[1]; Table 4, I-A2 alone 0.05 ppm AI
  AVERAGE DEAD IN % COMPOUND I-A2: 0%
[1]; Table 4, I-A2 alone 0.1 ppm AI
  AVERAGE DEAD IN % COMPOUND I-A2: 0%
[1]; Table 4, I-A2 alone 0.2 ppm AI
  AVERAGE DEAD IN % COMPOUND I-A2: 73%
[1]; Table 4, I-A2 alone 0.4 ppm AI
  AVERAGE DEAD IN % COMPOUND I-A2: 89%
[1]; Table 4, I-A2 alone 0.8 ppm AI
  AVERAGE DEAD IN % COMPOUND I-A2: 98%
[2]; Table 5, I-A2 alone 0.1 ppm AI, 8 days
  AVERAGE DEAD IN % COMPOUND I-A2: 17%
[2]; Table 5, I-A2 alone 0.2 ppm AI, 8 days
  AVERAGE DEAD IN % COMPOUND I-A2: 83%
[2]; Table 5, I-A2 alone 0.4 ppm AI, 8 days
  AVERAGE DEAD IN % COMPOUND I-A2: 100%
[2]; Table 6, I-A2 alone 0.1 ppm AI, 8 days
  AVERAGE DEAD IN % COMPOUND I-A2: 17%
[2]; Table 6, I-A2 alone 0.2 ppm AI, 8 days
  AVERAGE DEAD IN % COMPOUND I-A2: 83%
[2]; Table 6, I-A2 alone 0.8 ppm AI, 8 days
  AVERAGE DEAD IN % COMPOUND I-A2: 100%
[2]; Table 7, I-A2 alone 0.025 ppm AI, 0 * = 0% control assumed since control at the higher rate was also 0%
  AVERAGE DEAD IN % COMPOUND I-A2: 0 * %
[2]; Table 7, I-A2 alone 0.05 ppm AI, 0 * = 0% control assumed since control at the higher rate was also 0%
  AVERAGE DEAD IN % COMPOUND I-A2: 0 * %
[2]; Table 7, I-A2 alone 0.1 ppm AI, 8 days
  AVERAGE DEAD IN % COMPOUND I-A2: 0%
[2]; Table 7, I-A2 alone 0.2 ppm AI, 8 days
  AVERAGE DEAD IN % COMPOUND I-A2: 85%
[2]; Table 7, I-A2 alone 0.4 ppm AI, 8 days
  AVERAGE DEAD IN % COMPOUND I-A2: 95%
[2]; Table 8, I-A2 alone 0.1 ppm AI, 8 days
  AVERAGE DEAD IN % COMPOUND I-A2: 0%
[2]; Table 8, I-A2 alone 0.2 ppm AI, 8 days
  AVERAGE DEAD IN % COMPOUND I-A2: 85%
[2]; Table 8, I-A2 alone 0.4 ppm AI, 8 days
  AVERAGE DEAD IN % COMPOUND I-A2: 95%

## CCOC(=O)OC1=C(c2cc(C)ccc2C)C(=O)N[C@]12CC[C@@H](OC)CC2 [Spirotetramat, spirotetramat]
[1]; Table 3, Spirotetramat alone 25 ppm AI
  AVERAGE DEAD IN % Spirotetramat: 10%
[1]; Table 3, Spirotetramat alone 50 ppm AI
  AVERAGE DEAD IN % Spirotetramat: 0%
[1]; Table 3, Spirotetramat alone 100 ppm AI
  AVERAGE DEAD IN % Spirotetramat: 0%
[1]; Table 3, Spirotetramat alone 200 ppm AI
  AVERAGE DEAD IN % Spirotetramat: 0%
[1]; Table 3, Spirotetramat alone 400 ppm AI
  AVERAGE DEAD IN % Spirotetramat: 15%
[1]; Table 3, Spirotetramat alone 800 ppm AI
  AVERAGE DEAD IN % Spirotetramat: 80%
[2]; Table 7, Spirotetramat alone 12.5 ppm AI, 8 days
  AVERAGE DEAD IN % Spirotetramat: 75%
[2]; Table 7, Spirotetramat alone 25 ppm AI, 8 days
  AVERAGE DEAD IN % Spirotetramat: 85%
[2]; Table 7, Spirotetramat alone 50 ppm AI, 8 days
  AVERAGE DEAD IN % Spirotetramat: 90%
[2]; Table 7, Spirotetramat alone 100 ppm AI, 8 days
  AVERAGE DEAD IN % Spirotetramat: 90%
[2]; Table 7, Spirotetramat alone 200 ppm AI, 8 days
  AVERAGE DEAD IN % Spirotetramat: 90%

## abamectin
[1]; Table 1, Abamectin alone 0.1 ppm AI
  AVERAGE DEAD IN % Abamectin: 0%
[1]; Table 1, Abamectin alone 0.2 ppm AI
  AVERAGE DEAD IN % Abamectin: 0%
[1]; Table 1, Abamectin alone 0.4 ppm AI
  AVERAGE DEAD IN % Abamectin: 10%
[1]; Table 1, Abamectin alone 0.8 ppm AI
  AVERAGE DEAD IN % Abamectin: 65%
[1]; Table 1, Abamectin alone 1.6 ppm AI
  AVERAGE DEAD IN % Abamectin: 90%
[1]; Table 1, Abamectin alone 3.2 ppm AI
  AVERAGE DEAD IN % Abamectin: 90%
[2]; Table 5, Abamectin alone 0.0125 ppm AI, 8 days
  AVERAGE DEAD IN % Abamectin: 0%
[2]; Table 5, Abamectin alone 0.025 ppm AI, 8 days
  AVERAGE DEAD IN % Abamectin: 25%
[2]; Table 5, Abamectin alone 0.05 ppm AI, 8 days
  AVERAGE DEAD IN % Abamectin: 55%
[2]; Table 5, Abamectin alone 0.1 ppm AI, 8 days
  AVERAGE DEAD IN % Abamectin: 55%
[2]; Table 5, Abamectin alone 0.2 ppm AI, 8 days
  AVERAGE DEAD IN % Abamectin: 60%
